Measurements reported in article PMC11402852, “Genotoxicity of selected cannabinoids in human lymphoblastoid TK6 cells” (Archives of Toxicology, 2024).

Tests used:
TK6 cells = test: Tubulin visualization; type: cell-based, human; conditions: 6 h; CBG 30 µM, CBD 15 µM, CBC 15 µM, CBN 15 µM; visually compared to control, not quantified
Description: For tubulin visualization, cells were treated with CBG 30 µM, CBD 15 µM, CBC 15 µM, CBDV 40 µM, and CBN 15 µM. The positive control was vincristine sulphate 0.0121 µM, and the solvent control was DMSO. Cells were treated for 6 h and then harvested. Slides were prepared with cytospin centrifugation. The cells were fixed in ice-cold methanol for 2 h. Following fixation, cells were permeabilized with 0.1% Tween20 in 1 × phosphate-buffered saline (PBS) for 5 min. Next, the anti-α-tubulin antibody was applied in 1:50 dilution. Antibody was diluted with 5% FCS in 1 × PBS. The antibody was incubated in a humid chamber at 4 °C for 24 h. Afterwards, the antibody was removed by washing slides twice with 0.5% Tween20 in 1 × PBS for 5 min. Nuclei were counterstained with Hoechst 33,258 (5 µg/mL, 3 min). The visualization was performed with a Keyence BZ-X800 microscope.

colon-derived cells = system: colon-derived cells; parameters: method as in Aviello et al. ([2012]); conditions: 24 h of treatment, ref Aviello et al. ([2012]); cited from earlier work

C=C(C)[C@@H]1CCC(C)=C[C@H]1c1c(O)cc(CCCCC)cc1O [CBD, cannabidiol]
Multipolar and monopolar tubulin aggregation (TK6 cells): observed more frequently | DNA damage (comet assay) (colon-derived cells): did not induce DNA damage
